Experimental data reported in patent US20080108641A1, “Compounds for treating inflammatory disorders, demyelinating disdorders and cancers” (priority 2006, published 2008).

How the values were obtained:
[1] = tested on: B-lymphocyte cells isolated from the spleen; assay: Cell proliferation, B-Cell + LPS ([3H]thymidine incorporation); type: cell-based, balb/c mice; details: Mus musculus
Method: B-lymphocyte cells isolated from the spleen of balb/c mice weighing 17±1 g were used. Test compound and/or vehicle were incubated with the cells (1.5×10^6/ml) in the presence of 10 μg/ml lipopolysaccharide (LPS) in AIM-V medium pH 7.4 at 37° C. for 24 hours. [^3H]Thymidine (120 nM) was then added for an additional overnight incubation period. Thymidine incorporation was assessed by liquid scintillation counting.
Test compound-induced suppression of cell proliferation by 50 percent or more (≧50%) relative to vehicle control response indicates significant inhibitory activity.

[2] = tested on: colorectal cancer cell lines (HT29 & HCT116); assay: Microarray differential gene expression (CodeLink Human Whole Genome Bioarrays); type: cell-based

With `CCN(CC)CCNc1ccc2ncn3c4ccc(O)cc4c(=O)c1c23` [Symadex™] the IC50 [1] was 38 nM, the inhibition at 0.001 µM ([1]; read-out: % Growth Inhibition) was 0% and the inhibition at 0.01 µM ([1]; read-out: % Growth Inhibition) was 38%. The inhibition at 0.1 µM ([1]; read-out: % Growth Inhibition) was 80%, the inhibition at 1 µM ([1]; read-out: % Growth Inhibition) was 101% and the inhibition at 10 µM ([1]; read-out: % Growth Inhibition) was 103%. The “number of down-regulated genes significantly represented in both cell types” value ([2]; array of 55,000 gene fragment accessions, cells grown at concentration) was 271, the “MEAN FOLD CHANGE OVER CONTROL” value ([2]; gene ACYP1) was −2.07 and the “MEAN FOLD CHANGE OVER CONTROL” value ([2]; gene ADCYAP1) was −21.74. For the same molecule, the “MEAN FOLD CHANGE OVER CONTROL” value ([2]; gene ADH1C) was −12.02, the “MEAN FOLD CHANGE OVER CONTROL” value ([2]; gene AGT) was −22.71 and the “MEAN FOLD CHANGE OVER CONTROL” value ([2]; gene ALG5) was −2.71. For the same molecule, the “MEAN FOLD CHANGE OVER CONTROL” value ([2]; gene ANAPC4) was −1.92, the “MEAN FOLD CHANGE OVER CONTROL” value ([2]; gene APOA1) was −13.15 and the “MEAN FOLD CHANGE OVER CONTROL” value ([2]; gene ARL6IP) was −2.29. The “MEAN FOLD CHANGE OVER CONTROL” value ([2]; gene ASAH2) was −2.21, the “MEAN FOLD CHANGE OVER CONTROL” value ([2]; gene HAT1) was −2.63 and the “MEAN FOLD CHANGE OVER CONTROL” value ([2]; gene HMGB1) was −1.97. The “MEAN FOLD CHANGE OVER CONTROL” value ([2]; gene HMMR) was −2.94, the “MEAN FOLD CHANGE OVER CONTROL” value ([2]; gene HNF4A) was −7.42 and the “MEAN FOLD CHANGE OVER CONTROL” value ([2]; gene HNRPA2B1) was −1.93. For the same molecule, the “MEAN FOLD CHANGE OVER CONTROL” value ([2]; gene HSGT1) was −2.08, the “MEAN FOLD CHANGE OVER CONTROL” value ([2]; gene HSPB2) was −13.76 and the “MEAN FOLD CHANGE OVER CONTROL” value ([2]; gene IBSP) was −58.56. The “MEAN FOLD CHANGE OVER CONTROL” value ([2]; gene IL1RAP) was −11.23, the “MEAN FOLD CHANGE OVER CONTROL” value ([2]; gene IL1RL1) was −28.60 and the “MEAN FOLD CHANGE OVER CONTROL” value ([2]; gene IL7R) was −25.20. For the same molecule, the “MEAN FOLD CHANGE OVER CONTROL” value ([2]; gene IL13RA2) was −9.79, the “MEAN FOLD CHANGE OVER CONTROL” value ([2]; gene ITGA2B) was −10.64 and the “MEAN FOLD CHANGE OVER CONTROL” value ([2]; gene ITGA9) was −27.91. The “MEAN FOLD CHANGE OVER CONTROL” value ([2]; gene ITGAE) was −2.12, the “MEAN FOLD CHANGE OVER CONTROL” value ([2]; gene ITGB3BP) was −2.73 and the “MEAN FOLD CHANGE OVER CONTROL” value ([2]; gene ITSN1) was −15.06. The “MEAN FOLD CHANGE OVER CONTROL” value ([2]; gene KCNJ12) was −15.93, the “MEAN FOLD CHANGE OVER CONTROL” value ([2]; gene KCNJ15) was −6.83 and the “MEAN FOLD CHANGE OVER CONTROL” value ([2]; gene KCNQ2) was −24.13. For the same molecule, the “MEAN FOLD CHANGE OVER CONTROL” value ([2]; gene KIAA0089) was −7.23, the “MEAN FOLD CHANGE OVER CONTROL” value ([2]; gene KIF2C) was −2.52 and the “MEAN FOLD CHANGE OVER CONTROL” value ([2]; gene KIF5A) was −11.04. For the same molecule, the “MEAN FOLD CHANGE OVER CONTROL” value ([2]; gene KLRG1) was −24.24, the “MEAN FOLD CHANGE OVER CONTROL” value ([2]; gene KRT13) was −3.34 and the “MEAN FOLD CHANGE OVER CONTROL” value ([2]; gene LCP2) was −11.85. The “MEAN FOLD CHANGE OVER CONTROL” value ([2]; gene LIMS2) was −57.61, the “MEAN FOLD CHANGE OVER CONTROL” value ([2]; gene LNX) was −87.48 and the “MEAN FOLD CHANGE OVER CONTROL” value ([2]; gene LPAAT-E (first entry)) was −11.94. The “MEAN FOLD CHANGE OVER CONTROL” value ([2]; gene LPAAT-E (second entry)) was −2.40, the “MEAN FOLD CHANGE OVER CONTROL” value ([2]; gene LRP1B) was −15.01 and the “MEAN FOLD CHANGE OVER CONTROL” value ([2]; gene LTB) was −12.57. For the same molecule, the “MEAN FOLD CHANGE OVER CONTROL” value ([2]; gene MAD2L1) was −3.14, the “MEAN FOLD CHANGE OVER CONTROL” value ([2]; gene MAP6) was −12.89 and the “MEAN FOLD CHANGE OVER CONTROL” value ([2]; gene MAPK13) was −2.14. For the same molecule, the “MEAN FOLD CHANGE OVER CONTROL” value ([2]; gene MAPT) was −26.53, the “MEAN FOLD CHANGE OVER CONTROL” value ([2]; gene MAZ) was −1.89 and the “MEAN FOLD CHANGE OVER CONTROL” value ([2]; gene MCM6) was −1.97. The “MEAN FOLD CHANGE OVER CONTROL” value ([2]; gene MCM7) was −2.69, the “MEAN FOLD CHANGE OVER CONTROL” value ([2]; gene MEA) was −2.39 and the “MEAN FOLD CHANGE OVER CONTROL” value ([2]; gene MGAT4A) was −10.83. For the same molecule, the “MEAN FOLD CHANGE OVER CONTROL” value ([2]; gene MIS12) was −2.20, the “MEAN FOLD CHANGE OVER CONTROL” value ([2]; gene MPZL1) was −2.04 and the “MEAN FOLD CHANGE OVER CONTROL” value ([2]; gene MRPL1) was −2.02. The “MEAN FOLD CHANGE OVER CONTROL” value ([2]; gene MRPL11) was −2.97, the “MEAN FOLD CHANGE OVER CONTROL” value ([2]; gene MRPL13) was −2.16 and the “MEAN FOLD CHANGE OVER CONTROL” value ([2]; gene MRPL23) was −2.29. The “MEAN FOLD CHANGE OVER CONTROL” value ([2]; gene MRPL39) was −2.20.
